This note sets out measurements from article PMC9100673, “Acridine Based N-Acylhydrazone Derivatives as Potential Anticancer Agents: Synthesis, Characterization and ctDNA/HSA Spectroscopic Binding Properties” (Molecules, 2022).

Usually pIC50 stands for the negative decadic logarithm of the IC50, by convention in mol/L. A lower pIC50 goes with a high IC50. For orientation: melting point means the temperature, or range, at which the solid turns liquid.

One series relates to CCD-18Co cells. In words: MTT assay, metabolic activity of CCD-18Co fibroblasts. The class given is cell-based, human. The settings on record: 48 h; for pIC50: Homo sapiens, CCD-18Co. The protocol:
The effect of acridine-benzohydrazides (3a–3d) on the metabolic activity of the lung adenocarcinoma cell line (A549) and the normal colon fibroblast cell line (CCD-18Co) was evaluated using a 3-(4,5-dimethylthiazol-2-yl)-2,5-diphenyltertrazolium bromide (MTT) cell assay. This assay is based on the metabolization of yellow MTT to purple formazan crystal by mitochondrial dehydrogenases, and therefore only metabolic active cells are capable of that reaction. The CCD-18Co cell line was used as a control to check for derivatives selectivity. The doxorubicin belongs to a group of anthracyclines, which represent the chemotherapeutic regiments for the treatment of NSCLC (non-small cell lung carcinoma) even today, and acts as antineoplastic mainly by interaction with the DNA topoisomerase II and by creating DNA single- and double-strand breaks. Previous studies described detailed cytotoxic effects of doxorubicin in the human lung adenocarcinoma A549 cell line. Doxorubicin resembles our compounds in its biological action; therefore, it was employed as a positive control.
Human lung carcinoma cell line A549 and CCD-18Co colon fibroblasts were purchased from the American Type Culture Collection (ATCC, Rockville, MD, USA). The A549 cells were cultured in a complete RPMI-1640 medium (Sigma-Aldrich, St. Louis, MO, USA) and CCD-18Co cells were cultured in a minimum essential medium (MEM) (PAN-Biotech GmbH, Aidenbach, Germany) at 37 °C, 95% humidity and 5% CO2. The media were supplemented with 10% fetal bovine serum (FBS, Biosera, Nuaille, France) and antibiotics (1% Antibiotic-Antimycotic 100 × and 50 × 10^−3 g L^−1 gentamicin, Biosera). Prior to the selected treatments, cells were seeded on 6- and/or 96-well plates (TPP, Trasadingen, Switzerland) and left to settle for 24 h. The acridine compounds solutions (at concentrations ranging from 5–75 µM) were then added to cells for 24 or 48 h, and analysis was subsequently performed.
MTT assays were performed in order to evaluate changes in the metabolic activity of cells that had occurred as a consequence of treatment with the acridine compounds. A549 cells (15 × 10^3 cells/cm^2) and CCD-18Co (15.625 × 10^3 cells/cm^2) were seeded in 96-well microplates. The A549 cells were treated for 24 and 48 h, and the CCD-18Co cells were treated for 48 h with different concentrations (5, 25, 50 and 75 µM) of the derivatives. After the treatment, the MTT (3-(4,5-dimethylthiazol-2-yl)-2,5-diphenyltertrazolium bromide) solution in PBS (5 mg mL^−1) was added to each well. The reaction was stopped after 4 h incubation, and the formazan was dissolved by the addition of SDS at a final concentration of 3.3%. The absorbance of formazan (λ = 584 nm) was measured using a BMG FLUOstar Optima spectrometer (BMG Labtech GmbH, Offenburg, Germany). The results were evaluated as percentages of the absorbance of the untreated control. Results are presented as the average percentage of cells from three independent experiments. IC50 values for the derivatives were extrapolated from a sigmoidal fit (dose-response curve) to the metabolic activity data using OriginPro 8.5.0 SR1 (OriginLab Corp., Northampton, MA, USA).
Background: Formazan colour is commonly taken as a measure of viable cells.

A further series deals with T1, hTopo I (Homo sapiens, UniProt P11387).
T1 sequence (P11387 1-765): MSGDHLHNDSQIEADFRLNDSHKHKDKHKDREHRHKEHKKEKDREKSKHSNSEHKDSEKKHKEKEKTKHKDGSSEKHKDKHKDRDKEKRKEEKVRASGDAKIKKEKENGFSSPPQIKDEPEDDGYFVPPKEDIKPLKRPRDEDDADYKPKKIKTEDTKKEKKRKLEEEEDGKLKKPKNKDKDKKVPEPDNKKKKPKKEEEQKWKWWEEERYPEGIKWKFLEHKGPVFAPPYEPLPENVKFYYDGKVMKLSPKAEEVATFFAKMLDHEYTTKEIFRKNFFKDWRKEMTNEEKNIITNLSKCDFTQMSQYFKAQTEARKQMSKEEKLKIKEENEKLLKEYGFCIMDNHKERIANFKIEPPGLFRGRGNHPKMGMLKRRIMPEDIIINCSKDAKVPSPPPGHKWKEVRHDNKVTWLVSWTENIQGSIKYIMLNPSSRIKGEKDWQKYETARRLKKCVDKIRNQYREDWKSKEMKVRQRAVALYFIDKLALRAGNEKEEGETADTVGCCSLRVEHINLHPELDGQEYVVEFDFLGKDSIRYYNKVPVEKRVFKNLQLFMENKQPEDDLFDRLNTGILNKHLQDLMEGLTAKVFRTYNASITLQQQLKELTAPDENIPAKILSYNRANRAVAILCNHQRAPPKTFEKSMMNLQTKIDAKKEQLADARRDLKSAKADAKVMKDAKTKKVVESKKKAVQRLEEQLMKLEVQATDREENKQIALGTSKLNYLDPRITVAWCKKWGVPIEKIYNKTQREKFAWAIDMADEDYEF
The experiment in a line: Topo I DNA relaxation assay. It is filed as biochemical. To be noted: 25, 50 and 100 μM; pBR322. From the text: Topo I enzymes convert the supercoiled (SC) form DNA to relaxed (R) form and nicked-open-circular (NOC) DNA. The NOC form is circular dsDNA with one nicked strength; Topo I nicked only one strength. SC form DNA migrate the fastest in gel, NOC migrates the slowest, and the migration speed of R DNA is in the middle of these two forms. In an electrophoretogram with active Topo I enzymes, SC DNA is not observed, but R and NOC DNA forms can be seen. In the case of Topo I inhibition, bends for R and NOC DNA forms are not observed. The results electrophoretogram effect of derivatives 3a–3d on activity topoisomerase I show Figure 12A.
Figure 12 The result of Topo I/IIα activity tests in the presence of derivatives 3a–3d. (A) Electrophoretogram for inhibition relaxation activity of hTopo I (2.5 U) by derivatives 3a–3d in concentrations of 25, 50 and 100 μM (lane 5–16), substrate-free SC pBR322 (0.5 μg) (lane 4), camptothecin (CPT, lane 2) and plasmid+hTopo I control (lane 3). (NOC—nicked-opened DNA form; R—relaxed DNA form; SC—supercoiled DNA form). (B) Electrophoretogram for inhibition decatenation activity of hTopo IIα (0.5 U) by derivatives 3a–3d in concentrations of 25, 50 and 100 μM (lane 5–16), substrate-free catenated kinetoplast DNA (cat kDNA) (0.5 μg) (lane 4), m-Amsacrine (AMSA, lane 2) and plasmid +hTopo IIα control (lane 3). (decat DNA—decatenated DNA; NC—nicked circular DNA form; L—linear DNA form).

pIC50: −log10 of the molar value.

`O=C(N/N=C/c1cccc2cc3ccccc3nc12)c1ccc(Cl)cc1` [3c, N′-[(E)-Acridin-4-ylmethylidene]-4-chlorobenzohydrazide] gave a melting point of 266 to 267 °C. This molecule gave a negative-log IC50 (pIC50) in the series with CCD-18Co cells of 4.80. Also, the “inhibition of relaxation activity of Topo I” value (“inhibition” below) against hTopo I is on record as “might inhibit the relaxation activity of Topo I”.

In the case of `O=C(N/N=C/c1cccc2cc3ccccc3nc12)c1ccc(Br)cc1` [3d, N′-[(E)-Acridin-4-ylmethylidene]-4-bromobenzohydrazide], the melting point is 269 to 270 °C. In the series on CCD-18Co cells, this molecule gave a negative logarithm of the IC50 (pIC50) of 4.77. Also, on hTopo I, the “inhibition” value is “might inhibit the relaxation activity of Topo I”.

`O=C(N/N=C/c1cccc2cc3ccccc3nc12)c1ccc(F)cc1` [3b, N′-[(E)-Acridin-4-ylmethylidene]-4-fluorobenzohydrazide] showed a melting point of 229 to 230 °C. Moreover, in the series on CCD-18Co cells, the negative-log IC50 (pIC50) is 5.10. At hTopo I, the “inhibition” value was “did not have the potential to inhibit”.

In turn, `O=C(N/N=C/c1cccc2cc3ccccc3nc12)c1ccccc1` [3a, N′-[(E)-(Acridin-4-yl)methylidene]benzohydrazide] showed a melting point of 235 to 236 °C. Moreover, the “times less activity than doxorubicin in CCD18-Co” value in the series with CCD-18Co cells (from IC50) is listed as over 15. In addition, the negative logarithm of the IC50 (pIC50) with CCD-18Co cells was under 4.12. For the same molecule, the “inhibition” value against hTopo I is “did not have the potential to inhibit”.
